From US20260234165A1, “MACROCYCLIC COMPOUNDS, PREPARATION METHOD THEREFOR, AND USE THEREOF” (GENFLEET THERAPEUTICS (SHANGHAI) INC., priority 2004, published 2026) come the findings set out here.

pIC50: −log10 of the molar value. Where a name gives a salt, the structure may show the parent alone. Read-outs that look alike come from different tables or passages of the source.

What all share (assay type): cell-based, human
Assay [1] has as its system p-ERK in NCI-H441 cells (KRAS G12V mutation). Description: Cell p-ERK assay (HTRF) in NCI-H441 cells. Particulars: for pIC50: NCI-H441 cells, 3 h compound incubation, HTRF p-ERK T202/Y204, read-out: H441 p-ERK IC50. A digest of the protocol: (§1)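 Phospho-ERK inhibition measured by HTRF after a 3 h compound exposure (0.1% DMSO) in overnight-seeded cells; IC50 derived from dose-response fitting.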
On the technique in general: Time-resolved FRET reads energy transfer from a long-lived donor to a nearby acceptor.

Assay [2] has as its system p-ERK in AsPC-1 cells (KRAS G12D mutation). Description: Cell p-ERK assay (HTRF) in AsPC-1 cells. Particulars: for pIC50: AsPC-1 cells, 3 h compound incubation, HTRF p-ERK T202/Y204, read-out: AsPC-1 p-ERK IC50. A digest of the protocol: as §1
For assay [3], the system named is AsPC-1 cells (KRAS G12D mutation). Description: 3D cell proliferation assay (CellTiter Glo-3D), AsPC-1. The note with it: medium with 2% FBS, read-out: AsPC-1 AP IC50. A digest of the protocol: (§2)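 Cells seeded at 800 per well in medium with 2% FBS, treated next day with 3.16-fold dilution series (0.1% DMSO) for 5 days at 37°C. Viability by CellTiter-Glo 3D luminescence; inhibition normalised to DMSO and cell-free controls, IC50 by four-parameter fit.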
(Cellular ATP, detected with luciferase, serves as a proxy for viable cell number.)

The next assay relates to NCI-H441 cells. Nature of the assay: 3D cell proliferation assay (CellTiter Glo-3D), NCI-H441. The note with it: medium with 2% FBS, read-out: H441 AP IC50. A digest of the protocol:
as §2

The mark [4] stands for this setting: 3D cell proliferation (CellTiter Glo-3D).
The mark [5] stands for this setting: Homo sapiens, ASPC1, 3D cell proliferation (CellTiter Glo-3D).
Where [6] appears, read: Homo sapiens, NCI-H441, 3D cell proliferation (CellTiter Glo-3D).

The pIC50 is the negative decadic logarithm of the IC50, by convention in mol/L. Consider `CCn1c(-c2cc(C#CCN3CCOC[C@@H]3C)cnc2[C@H](C)OC)c2c3cc(ccc31)-c1csc(n1)C[C@H](NC(=O)[C@H]1[C@H](C)[C@@H]1C)C(=O)N1CCCC(N1)C(=O)OCC(C)(C)C2` (atropisomer, axis not shown; (Ra)) [Compound Z814], for which the pIC50 in assay [1] was 9.85; in assay [2], 9.82; in assay [3] (setting [4]), 9.85; with NCI-H441 cells (setting [4]) it was 9.74.
`CCn1c(-c2cc([C@@H]3CCN4CCOC[C@@H]4C3)cnc2[C@H](C)OC)c2c3cc(ccc31)-c1csc(n1)C[C@H](NC(=O)[C@H]1[C@H](C)[C@@H]1C)C(=O)N1CCC[C@H](N1)C(=O)OCC1(CC1)C2` (single isomer, unassigned) [Compound Z77]: the pIC50 in assay [1] (Homo sapiens, NCI-H441, 3 h) was 8.13; in assay [2] (Homo sapiens, ASPC1, 3 h), 7.86; in assay [3] (setting [5]), 7.76; in the assay on NCI-H441 cells (setting [6]), 8.31.
As usually defined, the IC50 is the concentration needed to halve the response being measured. As to `CCn1c(-c2cc(C#CCN3CCC(C#N)(c4cccc[n+]4[O-])CC3)cnc2[C@H](C)OC)c2c3cc(ccc31)-c1csc(n1)C[C@H](NC(=O)[C@H]1[C@H](C)[C@@H]1C)C(=O)N1CCC[C@H](N1)C(=O)OCC(C)(C)C2` [Compound Z1054, 2-(4-cyano-1-(3-(5-((6^3S,4S,Z)-4-((2R,3S)-2 3-dimethylcyclopropane-1-carboxamido)-1^1-ethyl-10,10-dimethyl-5,7-dioxo-6^1,6^2,6^3,6^4,6^5,6^6-hexahydro-1^1H-8-oxa-2(4.2)-thiazola-1(5,3)-indola-6(1,3)-pyridazinacycloundecaphane-12-yl)-6-((S)-1-methoxyethyl)pyridin-3-yl)prop-2-yn-1-yl)piperidin-4-yl)pyridine 1-oxide formate], the IC50 in assay [1] (Homo sapiens, NCI-H441, 3 h, read-out: H441 p-ERK IC50(nM)) amounted to 0.25 nM; in assay [2] (Homo sapiens, ASPC1, 3 h, read-out: AsPC-1 p-ERK IC50(nM)), 0.16 nM. For the same molecule, the negative-log IC50 (pIC50) in assay [3] (setting [5]) was 10.10; in the assay on NCI-H441 cells (Homo sapiens, 3D cell proliferation (CellTiter Glo-3D)), 9.82.
As for `CCn1c(-c2cc(C#CCN3CCCOCC3)cnc2[C@H](C)OC)c2c3cc(ccc31)-c1csc(n1)C[C@H](NP1(=O)CC(C)=C(C)C1)C(=O)N1CCC[C@H](N1)C(=O)OCC(C)(C)C2` (atropisomer, axis not shown; (Ra)) [Compound Z1032, (6^3S,4S,Z)—(Ra)-1^2-(5-(3-(1,4-oxazepan-4-yl)prop-1-yn-1-yl)-2-((S)-1-methoxyethyl)pyridin-3-yl)-4-((3,4-dimethyl-1-oxido-2,5-dihydrophosphol-1-yl)amino)-1^1-ethyl-10,10-dimethyl-6^1,6^2,6^3,6^4,6^5,6^6-hexahydro-1^1H-8-oxa-2(4,2)-thiazola-1(5,3)-indola-6(1,3)-pyridazinacycloundecaphane-5,7-dione], the pIC50 in assay [1] (Homo sapiens, NCI-H441, 3 h) was 8.66; in assay [2] (Homo sapiens, ASPC1, 3 h), 8.12; in assay [3] (setting [5]) it was 7.68; in the assay on NCI-H441 cells (setting [6]) it was 8.09.
As to `CCn1c(-c2cc(C#CCN3CC[C@H](C#N)C3)cnc2[C@H](C)OC)c2c3cc(ccc31)-c1csc(n1)C[C@H](Nc1nnc3cc(C)ccn13)C(=O)N1CCC[C@H](N1)C(=O)OCC(C)(C)C2` (atropisomer, axis not shown; (Ra)) [Compound Z1011, (3S)-1-(3-(5-((6^3S,4S,Z)—(Ra)-1^1-ethyl-10,10-dimethyl-4-((7-methyl-[1,2,4]triazolo[4,3-a]pyridin-3-yl)amino)-5,7-dioxo-6^1,6^2,6^3,6^4,6^5,6^6-hexahydro-1^1H-8-oxa-2(4,2)-thiazola-1(5,3)-indola-6(1,3)-pyridazinacycloundecaphane-1-yl)-6-((S)-1-methoxyethyl)pyridin-3-yl)prop-2-yn-1-yl)pyrrolidine-3-carbonitrile], the pIC50 in assay [1] was 8.91; in assay [2], 8.54; in assay [3] (setting [4]), 8.68; in the assay with NCI-H441 cells (setting [4]), 8.81.
